From BindingDB's records for doi:10.1021/jm101401a (Sanford-Burnham Medical Research Institute, 2011) come the findings set out here.

The structures appear in SMILES notation. A value given as a limit tells only on which side of the number the result lay.

By IC50 is commonly meant the concentration at which inhibition is half-maximal. Lower therefore signals greater potency.

The assay deals with T1, Mannose-6-phosphate isomerase (Homo sapiens, UniProt P34949).
T1 sequence (P34949 whole entry): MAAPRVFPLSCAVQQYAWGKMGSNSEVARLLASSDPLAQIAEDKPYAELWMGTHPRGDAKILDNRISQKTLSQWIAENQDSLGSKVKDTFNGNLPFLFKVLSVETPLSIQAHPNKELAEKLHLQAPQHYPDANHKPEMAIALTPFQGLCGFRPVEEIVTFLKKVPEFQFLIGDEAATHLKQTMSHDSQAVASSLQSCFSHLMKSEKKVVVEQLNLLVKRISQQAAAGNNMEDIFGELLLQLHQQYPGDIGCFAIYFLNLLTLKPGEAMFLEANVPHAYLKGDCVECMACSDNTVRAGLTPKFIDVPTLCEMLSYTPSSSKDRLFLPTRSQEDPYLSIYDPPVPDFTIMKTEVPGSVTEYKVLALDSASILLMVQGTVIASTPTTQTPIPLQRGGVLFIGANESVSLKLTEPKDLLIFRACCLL
The assay is described as follows: Inhibition of human purified phosphomannose isomerase.

Regarding `C=CCn1c(=O)c(=Cc2cc(OC)c(OC)c(OC)c2)s/c1=C(/C#N)c1nc2ccccc2n1C` [2-(1-methyl-2-benzimidazolyl)-2-[4-oxo-3-prop-2-enyl-5-[(3,4,5-trimethoxyphenyl)methylidene]-2-thiazolidinylidene]acetonitrile], the IC50 was > 10 µM.
On to `Oc1c(-c2ccccc2)sc2ccccc12` [2-phenyl-1-benzothiophen-3-one], for which the IC50 is > 10 µM.
